Results taken from patent US9221795B2, “Phosphatidylinositol 3-kinase inhibitors” (Gilead Sciences, Inc., priority 2013, dated 2015).

Key:
PI3Kδ = PI3Kδ (Homo sapiens (Human), UniProt O00329); assay: Enzymatic activity of PI3K isoforms, TR-FRET assay (PI3Kδ); type: biochemical; settings: 2× Km ATP, geometric mean if more than one value
Procedure, shortened: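 Recombinant heterodimeric PI3Kβ or PI3Kδ (25-50 pM) was run with 2 μM PIP2 and 2× Km ATP (75-500 μM) at pH 7.4, for 30 min at 25° C. PIP3 formation was detected by TR-FRET displacement of labeled PIP3 from Eu-GRP-1. IC50 values in nM come from four-parameter fits, as geometric means.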

PI3Kβ = PI3Kβ (Homo sapiens (Human), UniProt P42338); assay: Enzymatic activity of PI3K isoforms, TR-FRET assay (PI3Kβ); type: biochemical; settings: 2× Km ATP, geometric mean if more than one value
Description: Enzymatic activity of the class I PI3K isoforms in the presence of the compounds of Table 1 and Compounds X, Y and Z was measured using a time-resolved fluorescence resonance energy transfer (TR-FRET) assay. The TR-FRET assay was used to monitor formation of the product 3,4,5-inositol triphosphate molecule (PIP3) as it competed with fluorescently labeled PIP3 for binding to the GRP-1 pleckstrin homology domain protein. An increase in […] product results in a decrease in TR-FRET signal as the labeled fluorophore is displaced from the GRP-1 protein binding site.
Class I PI3K isoforms were expressed and purified as heterodimeric recombinant proteins. All assay reagents and buffers for the TR-FRET assay were purchased from Millipore. PI3K isoforms were assayed under initial rate conditions in the presence of 25 mM Hepes (pH 7.4), and 2× Km ATP (75-500 μM), 2 μM PIP2, 5% glycerol, 5 mM MgCl2, 50 mM NaCl, 0.05% (v/v) Chaps, 1 mM dithiothreitol, 1% (v/v) DMSO at the following concentrations for each isoforms: PI3Kα, PI3Kβ, and PI3Kδ between 25 and 50 pM, and PI3Kγ at 2 nM. After an assay reaction time of 30 minutes at 25° C., reactions were terminated with a final concentration of 10 mM EDTA, 10 nM labeled-PIP3, and 35 nM Europium labeled GRP-1 detector protein before reading TR-FRET on an Envision plate reader (Ex: 340 nm; Em: 615/665 nm; […] delay and 500 μs read window).
Data were normalized based on positive ([…] wortmanin) and negative (DMSO) controls. α, β, δ, and γ IC50 values were calculated from the fit of the dose-response curves to a four-parameter equation. All IC50 values represent geometric mean values if more than one value was obtained. IC50 values were reported in units of nM.

[1] = Hepatocyte stability (parent drug disappearance in cryopreserved hepatocytes); type: in vitro ADME, human; settings: human, cryopreserved human hepatocytes, 2 μM substrate, 37° C.; Table 2a
Procedure, shortened: (§1)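 Test article at 2 μM incubated in duplicate with 1 million hepatocytes/mL at 37 °C, 5% CO2, humidified. Parent loss tracked by LC/MS at 0, 1, 2 and 4 h, giving half-life (t1/2) in hours.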

basophils = assay: Basophil activation in human whole blood (Flow2 CAST kit, CD63 flow cytometry); type: cell-based; settings: Homo sapiens, human whole blood, basophils activated with anti-FcεRI mAb or fMLP, percent CD63 positive cells
[2] = tested on: cryopreserved human hepatocytes; assay: Hepatocyte stability (parent drug disappearance in cryopreserved hepatocytes); type: in vitro ADME; settings: human hepatocytes, 2 μM substrate, 37° C.
Procedure, shortened: as §1

Sequence of PI3Kβ (P42338 whole entry, the tested form may be a part, canonical isoform): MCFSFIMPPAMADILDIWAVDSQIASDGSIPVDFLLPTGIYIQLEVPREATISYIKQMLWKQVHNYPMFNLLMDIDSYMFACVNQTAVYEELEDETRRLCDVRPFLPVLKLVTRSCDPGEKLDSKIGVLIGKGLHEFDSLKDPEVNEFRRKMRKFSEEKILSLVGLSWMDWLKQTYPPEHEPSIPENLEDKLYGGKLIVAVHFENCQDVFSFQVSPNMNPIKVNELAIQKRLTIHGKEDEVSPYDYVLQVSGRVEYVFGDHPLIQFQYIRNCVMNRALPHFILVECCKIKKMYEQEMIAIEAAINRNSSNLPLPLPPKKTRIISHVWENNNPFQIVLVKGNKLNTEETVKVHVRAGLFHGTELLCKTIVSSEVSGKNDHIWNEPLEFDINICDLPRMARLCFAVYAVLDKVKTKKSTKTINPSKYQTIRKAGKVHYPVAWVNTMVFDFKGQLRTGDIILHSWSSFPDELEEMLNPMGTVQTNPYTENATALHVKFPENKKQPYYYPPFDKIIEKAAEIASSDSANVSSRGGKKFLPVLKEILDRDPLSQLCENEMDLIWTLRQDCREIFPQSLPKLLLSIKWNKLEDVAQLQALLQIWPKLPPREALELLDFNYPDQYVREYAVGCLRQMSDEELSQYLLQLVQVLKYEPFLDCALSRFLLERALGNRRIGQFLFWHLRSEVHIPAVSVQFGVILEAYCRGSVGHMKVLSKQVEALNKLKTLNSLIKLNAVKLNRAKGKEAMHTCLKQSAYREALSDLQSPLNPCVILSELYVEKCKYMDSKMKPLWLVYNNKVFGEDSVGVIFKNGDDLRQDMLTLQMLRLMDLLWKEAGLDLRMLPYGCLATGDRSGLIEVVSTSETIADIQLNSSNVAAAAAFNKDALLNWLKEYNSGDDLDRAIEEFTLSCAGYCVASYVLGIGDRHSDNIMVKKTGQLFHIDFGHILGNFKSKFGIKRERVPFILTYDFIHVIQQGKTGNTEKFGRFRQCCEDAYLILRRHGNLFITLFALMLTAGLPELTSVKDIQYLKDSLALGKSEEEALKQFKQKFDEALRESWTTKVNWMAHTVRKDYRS
Sequence of PI3Kβ (P27986 whole entry partner, the tested form may be a part, canonical isoform): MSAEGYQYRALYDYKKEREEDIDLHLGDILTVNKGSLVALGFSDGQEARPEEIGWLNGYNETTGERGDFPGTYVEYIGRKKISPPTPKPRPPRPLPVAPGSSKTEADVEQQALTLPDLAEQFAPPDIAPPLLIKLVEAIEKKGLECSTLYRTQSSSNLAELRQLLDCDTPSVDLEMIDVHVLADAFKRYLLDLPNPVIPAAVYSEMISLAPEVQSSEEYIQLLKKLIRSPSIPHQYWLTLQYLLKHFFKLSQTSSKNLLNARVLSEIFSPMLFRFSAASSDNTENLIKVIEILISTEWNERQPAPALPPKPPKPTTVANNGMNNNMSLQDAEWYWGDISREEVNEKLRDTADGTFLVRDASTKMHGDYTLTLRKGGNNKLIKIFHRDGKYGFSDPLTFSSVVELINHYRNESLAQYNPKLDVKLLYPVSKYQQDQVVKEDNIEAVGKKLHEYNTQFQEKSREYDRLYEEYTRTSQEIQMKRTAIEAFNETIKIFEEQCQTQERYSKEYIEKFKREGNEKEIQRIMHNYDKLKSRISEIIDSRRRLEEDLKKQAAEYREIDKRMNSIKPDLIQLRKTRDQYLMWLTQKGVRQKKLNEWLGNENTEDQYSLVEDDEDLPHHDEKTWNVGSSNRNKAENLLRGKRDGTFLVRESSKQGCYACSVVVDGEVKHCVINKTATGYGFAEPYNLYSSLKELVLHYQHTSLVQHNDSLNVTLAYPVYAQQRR
Sequence of PI3Kδ (O00329 whole entry, canonical isoform): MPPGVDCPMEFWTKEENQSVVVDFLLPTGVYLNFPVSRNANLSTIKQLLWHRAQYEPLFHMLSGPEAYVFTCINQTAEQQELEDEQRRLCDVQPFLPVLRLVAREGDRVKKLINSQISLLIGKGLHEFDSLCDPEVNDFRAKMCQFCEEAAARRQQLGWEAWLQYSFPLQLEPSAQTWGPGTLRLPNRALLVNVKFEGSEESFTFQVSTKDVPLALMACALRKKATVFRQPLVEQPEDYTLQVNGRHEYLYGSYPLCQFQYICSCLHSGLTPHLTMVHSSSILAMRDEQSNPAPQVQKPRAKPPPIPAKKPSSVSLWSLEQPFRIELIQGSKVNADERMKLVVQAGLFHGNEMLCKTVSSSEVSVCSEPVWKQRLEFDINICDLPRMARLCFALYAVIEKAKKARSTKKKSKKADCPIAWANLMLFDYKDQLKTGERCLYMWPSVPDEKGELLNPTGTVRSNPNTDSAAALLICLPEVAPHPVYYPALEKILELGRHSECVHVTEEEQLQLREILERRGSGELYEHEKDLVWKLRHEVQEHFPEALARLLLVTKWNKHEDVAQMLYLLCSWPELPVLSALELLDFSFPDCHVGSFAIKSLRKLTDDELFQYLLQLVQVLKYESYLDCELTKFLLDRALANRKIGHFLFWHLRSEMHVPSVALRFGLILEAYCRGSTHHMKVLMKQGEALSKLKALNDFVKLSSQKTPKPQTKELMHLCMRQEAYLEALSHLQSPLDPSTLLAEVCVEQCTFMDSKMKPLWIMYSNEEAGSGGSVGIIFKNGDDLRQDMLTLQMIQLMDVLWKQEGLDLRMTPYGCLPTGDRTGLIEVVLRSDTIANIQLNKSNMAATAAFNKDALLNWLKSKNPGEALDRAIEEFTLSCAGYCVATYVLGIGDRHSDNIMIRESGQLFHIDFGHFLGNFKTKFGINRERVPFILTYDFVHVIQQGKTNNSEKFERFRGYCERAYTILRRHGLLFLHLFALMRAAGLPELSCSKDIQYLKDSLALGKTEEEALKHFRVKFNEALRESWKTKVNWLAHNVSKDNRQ
Sequence of PI3Kδ (P27986 whole entry partner, canonical isoform): as the sequence (P27986 whole entry partner, the tested form may be a part, canonical isoform) above

IC50 (PI3Kδ) [nM] | IC50 (PI3Kβ) [nM] | half-life at 2 μM [1] [h] | EC50 (basophils; class symbol) [nM] | EC50 (basophils; geometric mean) [nM] | t1/2 ([2]; class symbol) | t1/2 ([2]; Table 3) [h] | SMILES
0.5 | 1 | 10 | – | – | – | – | C[C@H](Nc1nc(N)nc(N)c1C#N)c1nc2c(Cl)ccc(Cl)c2c(=O)n1-c1ccc(N)nc1 [Compound 84, (S)-2,4-diamino-6-((1-(3-(6-aminopyridin-3-yl)-5,8-dichloro-4-oxo-3,4-dihydroquinazolin-2-yl)ethyl)amino)pyrimidine-5-carbonitrile]
3 | 9 | > 10 | – | – | – | – | C[C@H](Nc1nc(N)nc(N)c1Cl)c1nc2cccc(Cl)c2c(=O)n1-c1ccc(N)nc1 [Compound 85, (S)-3-(6-aminopyridin-3-yl)-5-chloro-2-(1-((2,6-diamino-5-chloropyrimidin-4-yl)amino)ethyl)quinazolin-4(3H)-one]
0.5 | – | – | < 1 | 0.4 | ***** (***** = >10 h) | >10 | Cc1c(F)cncc1-n1c([C@H](C)Nc2nc(N)nc(N)c2C#N)nc2cccc(Cl)c2c1=O (atropisomer, axis not shown) [Compound 47, (S)-2,4-diamino-6-(1-(5-chloro-3-(5-fluoro-4-methylpyridin-3-yl)-4-oxo-3,4-dihydroquinazolin-2-yl)ethylamino)pyrimidine-5-carbonitrile]
0.8 | 1 | 4 | – | – | – | – | CC[C@H](Nc1nc(N)nc(N)c1C#N)c1nc2cccc(Cl)c2c(=O)n1-c1cnc(N)cc1C (atropisomer, axis not shown) [Compound 92, (S)-2,4-diamino-6-((1-(3-(6-amino-4-methylpyridin-3-yl)-5-chloro-4-oxo-3,4-dihydroquinazolin-2-yl)propyl)amino)pyrimidine-5-carbonitrile]
0.8 | 0.7 | > 10 | – | – | – | – | C[C@H](Nc1nc(N)nc(N)c1C#N)c1nc2cccc(Cl)c2c(=O)n1-c1ccc(N)nc1 [Compound 97, (S)-2,4-diamino-6-((1-(3-(6-aminopyridin-3-yl)-5-chloro-4-oxo-3,4-dihydroquinazolin-2-yl)ethyl)amino)pyrimidine-5-carbonitrile]
0.6 | 0.8 | > 10 | – | – | – | – | CC[C@H](Nc1nc(N)nc(N)c1C#N)c1nc2cccc(Cl)c2c(=O)n1-c1ccc(N)nc1 [Compound 87, (S)-2,4-diamino-6-((1-(3-(6-aminopyridin-3-yl)-5-chloro-4-oxo-3,4-dihydroquinazolin-2-yl)propyl)amino)pyrimidine-5-carbonitrile]
1 | 3 | 4 | – | – | – | – | Cc1cc(N)ncc1-n1c([C@H](C)Nc2nc(N)nc(N)c2C#N)nc2c(Cl)ccc(Cl)c2c1=O (atropisomer, axis not shown) [Compound 96, (S)-2,4-diamino-6-((1-(3-(6-amino-4-methylpyridin-3-yl)-5,8-dichloro-4-oxo-3,4-dihydroquinazolin-2-yl)ethyl)amino)pyrimidine-5-carbonitrile]
5 | 5 | > 10 | – | – | – | – | C[C@H](Nc1nc(N)nc(N)c1C#N)c1nc2c(Cl)cc(F)cc2c(=O)n1-c1ccc(N)nc1 [Compound 82, (S)-2,4-diamino-6-((1-(3-(6-aminopyridin-3-yl)-8-chloro-6-fluoro-4-oxo-3,4-dihydroquinazolin-2-yl)ethyl)amino)pyrimidine-5-carbonitrile]
0.5 | 1 | 10 | – | – | – | – | Cc1cc(N)ncc1-n1c([C@H](C)Nc2nc(N)nc(N)c2C#N)nc2cccc(Cl)c2c1=O (atropisomer, axis not shown) [Compound 94, (S)-2,4-diamino-6-((1-(3-(6-amino-4-methylpyridin-3-yl)-5-chloro-4-oxo-3,4-dihydroquinazolin-2-yl)ethyl)amino)pyrimidine-5-carbonitrile]
6 | 11 | > 10 | – | – | – | – | C[C@H](Nc1nc(N)nc(N)c1Cl)c1nc2c(F)ccc(Cl)c2c(=O)n1-c1ccc(N)nc1 [Compound 88, (S)-3-(6-aminopyridin-3-yl)-5-chloro-2-(1-((2,6-diamino-5-chloropyrimidin-4-yl)amino)ethyl)-8-fluoroquinazolin-4(3H)-one]
